Patent US8846570B2, “Herbicidal compositions comprising 4-amino-3-chloro-5-fluoro-6-(4-chloro-2-fluoro-3-methoxyphenyl)pyridine-2-carboxylic acid or a derivative thereof and microtubule inhibiting herbicides” (Dow AgroSciences LLC, priority 2012, dated 2014)

Key:
Assay in all cases: Pre-emergence soil-applied, greenhouse: visual weed control
Type in all cases: in vivo
[1] = test system: Xanthium strumarium L. (XANST); conditions: 27 DAA
Excerpt: (§1) Seeds or nutlets of the desired test plant species were planted in a soil matrix prepared by mixing a loam soil (e.g., 32 percent silt, 23 percent clay, and 45 percent sand, with a pH of about 6.5 and an organic matter content of about 1.9 percent) and calcareous grit in an 80 to 20 ratio. The soil matrix was contained in plastic pots with a volume of 1 quart and a surface area of 83.6 square centimeters (cm^2).
(§2) Treatments consisted of the benzyl ester of 4-amino-3-chloro-5-fluoro-6-(4-chloro-2-fluoro-3-methoxy-phenyl)pyridine-2-carboxylic acid (compound A) formulated as an SC (suspension concentrate) and various herbicidal components alone and in combination. Forms of compound A were applied on an acid equivalent basis.
(§3) Treatment requirements were calculated based upon the rates being tested, the concentration of active ingredient or acid equivalent in the formulation, and a 12 mL application volume at a rate of 187 L/ha.
(§4) For treatments comprised of formulated compounds, measured amounts of compounds were placed individually in 25 mL glass vials and diluted in a volume of 1.25% (v/v) Agri-Dex® crop oil concentrate (COC) to obtain 12× stock solutions. […] Application solutions were prepared by adding an appropriate amount of each stock solution (e.g., 1 mL) and diluted to the appropriate final concentrations with the addition of 10 mL of an aqueous mixture of 1.25% (v/v) COC so that the final spray solutions contained 1.25% (v/v) COC.
(§5) For treatments comprised of formulated and technical compounds, weighed amounts of the technical materials were placed individually in 25 mL glass vials and dissolved in a volume of 97:3 (v/v) acetone/DMSO to obtain 12× stock solutions, and measured amounts of the formulated compounds were placed individually in 25 mL glass vials and diluted in a volume of 1.5% (v/v) COC or water to obtain 12× stock solutions. […] Application solutions were prepared by adding an appropriate amount of each stock solution (e.g., 1 mL) and diluted to the appropriate final concentrations with the addition of an appropriate amount of an aqueous mixture of 1.5% (v/v) COC so that the final spray solutions contained 1.25% (v/v) COC. As required, additional water and/or 97:3 (v/v) acetone/DMSO was added to individual application solutions so that the final acetone and DMSO concentrations of the application solutions being compared were 8.1% and 0.25%, respectively.
(§6) All stock solutions and applications solutions were visually inspected for compound compatibility prior to application. Spray solutions were applied to the soil with an overhead Mandel track sprayer equipped with a 8002E nozzles calibrated to deliver 187 L/ha over an application area of 0.503 m^2 at a spray height of 18 inches (46 cm) above average pot height. Control pots were sprayed in the same manner with the solvent blank.
(§7) The treated and control pots were placed in a greenhouse and top watered as needed. When required to ensure good germination and healthy plants, a fungicide treatment and/or other chemical or physical treatment was applied. The pots were maintained in a greenhouse with an approximate 14 hr photoperiod which was maintained at about 29° C. during the day and 26° C. during the night. Nutrients (Peters® Excel 15-5-15 5-Ca 2-Mg) were applied in the irrigation solution as needed and water was added on a regular basis. Supplemental lighting was provided with overhead metal halide 1000-Watt lamps as necessary. After approximately 4 weeks, the condition of the test plants as compared with that of the untreated plants was determined visually and scored on a scale of 0 to 100 percent where 0 corresponds to no injury or growth inhibition and 100 corresponds to complete kill.
(§8) Colby's equation was used to determine the herbicidal effects expected from the mixtures (Colby, S. R. 1967. Calculation of the synergistic and antagonistic response of herbicide combinations. Weeds 15:20-22.). […]

[2] = test system: Brachiaria platyphylla (Groseb.) Nash or Urochloa platyphylla (Nash) R.D. Webster (BRAPP)
Excerpt: as §1, §2, §3, §4, §5, §6, §7, §8

[3] = test system: Echinochloa crus-galli (L.) P. Beauv. (ECHCG)
Excerpt: as §1, §2, §3, §4, §5, §6, §7, §8

[4] = test system: Echinochloa colonum (L.) Link (ECHCO)
Excerpt: as §1, §2, §3, §4, §5, §6, §7, §8

[5] = test system: Sesbania exaltata (Raf.) Cory/Rydb. Ex Hill (SEBEX); conditions: Compound A Benzyl Ester 16 g ae/ha alone
Excerpt: as §1, §2, §3, §4, §5, §6, §7, §8

[6] = test system: Setaria faberi Herrm. (SETFA)
Excerpt: as §1, §2, §3, §4, §5, §6, §7, §8

[7] = Compound A Benzyl Ester 16 g ae/ha alone
[8] = Compound A Benzyl Ester 32 g ae/ha alone

Compound | Visual Weed Control (%) Obs ([1]; 140 g ai/ha) | Visual Weed Control (%) Obs ([1]; 280 g ai/ha) | Visual Weed Control (%) - 33 DAA BRAPP Obs [2, 7] | Visual Weed Control (%) - 33 DAA BRAPP Obs [2, 8] | Visual Weed Control (%) - 33 DAA ECHCG Obs [3, 7] | Visual Weed Control (%) - 33 DAA ECHCG Obs [3, 8] | Visual Weed Control (%) - 33 DAA ECHCO Obs [4, 7] | Visual Weed Control (%) - 33 DAA ECHCO Obs [4, 8] | Visual Weed Control (%) - 33 DAA SEBEX Obs [5] | Visual Weed Control (%) - 33 DAA SETFA Obs [6, 7] | Visual Weed Control (%) - 33 DAA SETFA Obs [6, 8]
CSC(=O)c1c(C(F)F)nc(C(F)(F)F)c(C(=O)SC)c1CC(C)C [Dithiopyr, S,S′-dimethyl-2-(difluoromethyl)-4-(2-methylpropyl)-6-(trifluoromethyl)-3,5-pyridinedicarbothioate] | 0% | 17% |  |  |  |  |  |  |  |  | 
COc1c(Cl)ccc(-c2nc(C(=O)OCc3ccccc3)c(Cl)c(N)c2F)c1F [Compound A Benzyl Ester, benzyl ester of 4-amino-3-chloro-5-fluoro-6-(4-chloro-2-fluoro-3-methoxy-phenyl)pyridine-2-carboxylic acid] |  |  | 23% | 50% | 20% | 33% | 12% | 3% | 40% | 13% | 13%
